Experimental findings from PubChem BioAssay (NCI) are described below.

Each structure is given as a SMILES string.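 Grown in 96-well plates, cells were treated for 48 hours with each compound at five concentrations. Insufficient inhibition: endpoint recorded as highest concentration tested. GI50: concentration for 50% inhibition of growth. TGI is the concentration that stops growth completely.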

One assay deals with OVCAR-3 ovarian. Kind of assay: NCI anticancer screen, dose series, 48 h.
On to `CS(=O)(=O)CC1=Nc2nnc(CCCCCCCc3nnc4n3C(=O)C(CS(C)(=O)=O)=N4)n2C1=O`, for which the TGI was over 100 µM.

As for `COc1ccccc1[N-]C(C1=C([O-])c2ccccc2C1=O)c1ccccc1.COc1ccccc1[N-]C(C1=C([O-])c2ccccc2C1=O)c1ccccc1.[Cu+2]` (configuration not stated), the GI50 is 13.8 µM and the TGI was 54.2 µM.

`O=C(NCCCCCCNC(=O)c1cccc2ccccc12)c1cccc2ccccc12` returned a TGI of 71 µM.

For the compound `COC12C=CC(CC1)c1c(O)ccc(O)c12` (configuration not stated), the TGI came to 44.2 µM.

For the compound `CC1=C2CCCC2C/C(=N/Nc2ccc([N+](=O)[O-])cc2[N+](=O)[O-])CC1` (configuration not stated), the TGI is over 100 µM.

Consider `CC1CC2C(=O)NC(=O)C2c2[nH]c3ccccc3c21` (configuration not stated), for which the TGI was over 100 µM.

For the compound `Cc1ccc2c(c1)C1(C)OC(CC(N)C1O)O2` (configuration not stated), the TGI was over 100 µM.

`COC(=O)[C@@H]1CSC(=S)N1C(=O)C[C@H]1CC=CC[C@H]1CC(=O)Sc1ccccc1` displayed a TGI of 36.2 µM.

As for `CN(C)c1ccc2nc3ccc(=[N+](C)C)cc-3oc2c1`, the GI50 was 0.4 µM and the TGI came to 5.09 µM.

In the case of `CC1(Sc2ccccc2)CN(Cc2ccccc2)C1=O` (configuration not stated), the TGI was over 100 µM.

On to `C=C1C(=O)OC2CC3(C)C=CC(=O)C(=C)C3CC12` (configuration not stated), for which the TGI is 7.19 µM.

For `COc1cccc(OC(=O)c2ccccc2Nc2ccnc(C(F)(F)F)c2)c1`, the GI50 is 1.65 µM and the TGI turned out to be 10.5 µM.

The compound `Cc1ccc(C(=O)Nc2ccc(S(=O)(=O)O)c3cc(S(=O)(=O)O)cc(S(=O)(=O)O)c23)cc1NC(=O)c1cccc(N)c1` gave a TGI of over 100 µM.

The compound `CCOP(=O)(OCC)C1CCCCOC1=O` (configuration not stated) had a TGI of over 100 µM.

With `COc1ccc(Cn2nc(-c3cc(OC)c(OC)c(OC)c3)c3c2CCc2cnoc2-3)cc1OC`, the GI50 was 3.29 µM and the TGI is 9.61 µM.

Another assay concerns MDA-MB-231 breast. Kind of assay: NCI anticancer screen, dose series, 48 h.
For `CN(C)CCCNC(=O)c1cc(NC(=O)CCNS(=O)(=O)c2ccc3c(c2)C(=O)c2ccccc2C3=O)cn1C`, the GI50 is over 100 µM and the TGI was over 100 µM.

As to `c1ccc2[nH]c(-c3ccc(N4CCN(c5ccc(-c6nc7ccccc7[nH]6)cc5)CC4)cc3)nc2c1`, the GI50 was over 100 µM and the TGI was over 100 µM.

Regarding `COc1cc(Cn2cc3c(c2)-c2oncc2CC3)cc(OC)c1OC`, the GI50 was 0.0601 µM and the TGI was over 100 µM.

In the case of `COc1cccc(OC(=O)c2ccccc2Nc2ccnc(C(F)(F)F)c2)c1`, the GI50 was 2.12 µM and the TGI was 16.9 µM.

Consider `Cc1ccc(C(=O)Nc2ccc(S(=O)(=O)O)c3cc(S(=O)(=O)O)cc(S(=O)(=O)O)c23)cc1NC(=O)c1cccc(N)c1`, for which the TGI was over 100 µM.

Regarding `COc1ccc(Cn2nc(-c3cc(OC)c(OC)c(OC)c3)c3c2CCc2cnoc2-3)cc1OC`, the GI50 is 8 µM and the TGI was over 100 µM.

A further assay has as its system COLO 205 colon. Kind of assay: NCI anticancer screen, dose series, 48 h.
For the compound `Nc1cc(=O)[nH]c(SC2=NC(N)CC(O)C2)n1` (configuration not stated), the TGI is over 100 µM.

`CC(=O)[O][Pb]([O]C(C)=O)([c]1ccccc1)[c]1ccccc1`: the GI50 was 1.76 µM and the TGI was found to be 15 µM.

`CN1CCc2c1nc(-c1ccccc1)c1c2N(C)CC1` displayed a TGI of over 100 µM.

Turning to `CCC[CH2][Sn]([CH2]CCC)([O]C(C)=O)[O]C(C)=O`, the GI50 was 1.81 µM and the TGI worked out at 4.29 µM.

Consider `CN(C)CCCNC(=O)c1cc(NC(=O)CCNS(=O)(=O)c2ccc3c(c2)C(=O)c2ccccc2C3=O)cn1C`, for which the GI50 was over 100 µM and the TGI is over 100 µM.

`COC(=O)CCC(=O)N1Cc2cc(C)ccc2N(C(=O)CCC(=O)OC)Cc2cc(C)ccc21` displayed a TGI of over 100 µM.

`C=C1C(=O)O[C@H]2C[C@@H](C)[C@@H]3CC(=O)OC[C@@]3(C)CC12` (some centres not stated) came in with a TGI of 60.7 µM.

Turning to `c1ccc2[nH]c(-c3ccc(N4CCN(c5ccc(-c6nc7ccccc7[nH]6)cc5)CC4)cc3)nc2c1`, the GI50 was over 100 µM and the TGI was over 100 µM.

On to `CS(=O)(=O)CC1=Nc2nnc(CCCCCCCc3nnc4n3C(=O)C(CS(C)(=O)=O)=N4)n2C1=O`, for which the TGI is over 100 µM.

Turning to `COc1ccccc1[N-]C(C1=C([O-])c2ccccc2C1=O)c1ccccc1.COc1ccccc1[N-]C(C1=C([O-])c2ccccc2C1=O)c1ccccc1.[Cu+2]` (configuration not stated), the GI50 is 3.95 µM and the TGI turned out to be 30 µM.

For the compound `O=C(NCCCCCCNC(=O)c1cccc2ccccc12)c1cccc2ccccc12`, the TGI is 3.4 µM.

As for `COC12C=CC(CC1)c1c(O)ccc(O)c12` (configuration not stated), the TGI came to 57 µM.

`CC1=C2CCCC2C/C(=N/Nc2ccc([N+](=O)[O-])cc2[N+](=O)[O-])CC1` (configuration not stated) yielded a TGI of over 100 µM.

As for `CC1CC2C(=O)NC(=O)C2c2[nH]c3ccccc3c21` (configuration not stated), the TGI is over 100 µM.

On to `Cc1ccc2c(c1)C1(C)OC(CC(N)C1O)O2` (configuration not stated), for which the TGI was over 100 µM.

Regarding `COC(=O)[C@@H]1CSC(=S)N1C(=O)C[C@H]1CC=CC[C@H]1CC(=O)Sc1ccccc1`, the TGI was 37.1 µM.

Consider `COc1cc(Cn2cc3c(c2)-c2oncc2CC3)cc(OC)c1OC`, for which the GI50 was 0.0332 µM and the TGI worked out at 0.0957 µM.

Consider `CN(C)c1ccc2nc3ccc(=[N+](C)C)cc-3oc2c1`, for which the GI50 is 0.391 µM and the TGI is 1.68 µM.

On to `CC1(Sc2ccccc2)CN(Cc2ccccc2)C1=O` (configuration not stated), for which the TGI was over 100 µM.

`C=C1C(=O)OC2CC3(C)C=CC(=O)C(=C)C3CC12` (configuration not stated): the TGI was 3.05 µM.

Regarding `COc1cccc(OC(=O)c2ccccc2Nc2ccnc(C(F)(F)F)c2)c1`, the GI50 is 2.22 µM and the TGI was determined as 5.13 µM.

Consider `Cc1ccc(C(=O)Nc2ccc(S(=O)(=O)O)c3cc(S(=O)(=O)O)cc(S(=O)(=O)O)c23)cc1NC(=O)c1cccc(N)c1`, for which the TGI is over 100 µM.

`CCOP(=O)(OCC)C1CCCCOC1=O` (configuration not stated) showed a TGI of over 100 µM.

Consider `COc1ccc(Cn2nc(-c3cc(OC)c(OC)c(OC)c3)c3c2CCc2cnoc2-3)cc1OC`, for which the GI50 is 4.68 µM and the TGI turned out to be 23.4 µM.

In the next assay the test system is SNB-19 CNS. Kind of assay: NCI anticancer screen, dose series, 48 h.
`CN(C)c1ccc2c(NCCCCCCNc3ccnc4cc(N(C)C)ccc34)ccnc2c1` yielded a TGI of 16.4 µM.

`Nc1cc(=O)[nH]c(SC2=NC(N)CC(O)C2)n1` (configuration not stated) had a TGI of over 100 µM.

For the compound `CC(=O)[O][Pb]([O]C(C)=O)([c]1ccccc1)[c]1ccccc1`, the GI50 was 23.8 µM and the TGI is 46.6 µM.
